“And” between values parts separate entries of the source, which are not always exact repeats. Equal entries are not always repeated.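 Protocol summary: plate cells (96-well), add compound at 5 concentrations, incubate 48 h, interpolate endpoints linearly. GI50 = concentration required for 50% inhibition of growth. TGI: total growth inhibition.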

In one assay the test system is HT29 colon. The assay is described as follows: NCI-60 cell line screen, 48 h.
Take `CCc1ccccc1NC(=O)C(=O)C(C(=O)c1ccc(OC)cc1)c1ccc(OC)cc1` (configuration not stated): the TGI was over 100 µM.
Still for that read-out and setting: for `C/C(=N/N(C=O)C[n+]1ccccc1)C(CN(CC(C)C)CC(C)C)C(=O)Nc1ccc(C)cc1C` (configuration not stated) the value was over 100 µM; for `O=C(c1ccccc1)c1c(CC(O)c2cccnc2)n(C(=O)c2ccccc2)c2ccccc12` (configuration not stated), 35.6 µM; for `C=C(C)C1CC2C(C)=C(OC(C)=O)C1n1c(=O)c3cc4ccccc4cc3c(=O)n12` (configuration not stated), over 100 µM.
Same read-out and setting: the result for `COc1ccc(C(C2=C(C)C(=O)c3ccccc3C2=O)c2ccc(C(C)C)cc(=O)c2O)cc1` (configuration not stated) reads 35.3 µM; that for `CC(C)N(C(=O)C12C3C4C1C1C2C3C41C(O)C(C)(C)C)C(C)C` (configuration not stated), over 50 µM.
Regarding `Clc1ccc(COC(Cn2ccnc2)c2ccc(Cl)cc2Cl)cc1` (configuration not stated), the GI50 was 1.95 µM; the TGI was 5.22 µM and 22.4 µM and 21.5 µM.
As for `COC(=O)C1=C(OC(=O)c2ccc(Cl)cc2)C(C(=O)OC)[C@@]2(O)[C@@H](C(=O)OC)C(c3ccccc3C(F)(F)F)C[C@@H]1[C@@H]2C(=O)OC` (some centres not stated), the GI50 was 3.54 µM and the TGI is over 100 µM.
The compound `Nc1c(C(=O)Nc2ccc([As](=O)(O)O)cc2)cnc2nnnn12` gave a TGI of over 100 µM.
With `CC(C)n1c(/C=C/[C@@H](O)C[C@@H](O)CC(=O)O)c(-c2ccc(F)cc2)c2ccccc21`, the GI50 was 12.8 µM and 15.6 µM; the TGI was over 100 µM.
In turn, `N#CC(C#N)SCc1ccccc1` registered a TGI of 62.8 µM.
The compound `CCOc1ccc(NCC2CC/C(=C\C=C\c3ccccc3)C2=O)cc1` (configuration not stated) gave a TGI of 30.3 µM.
With `Cc1cc(N(CCNc2ccnc3cc(Cl)ccc23)Cc2ccc3c(c2)OCO3)nc(N2CCN(C)CC2)n1`, the GI50 is 1.84 µM and the TGI worked out at 5.96 µM.

Another assay concerns 786-0 renal. Put plainly: NCI-60 cell line screen, 48 h.
The compound `O=C1c2ccccc2N2OC3(N4CCCC4)CCCC3C12c1ccccc1` (configuration not stated) came in with a TGI of over 100 µM.
The same measure, in the same setting: for `COc1ccc(C2C(Cl)C(=O)N2n2cnc3ccccc3c2=O)cc1OC` (configuration not stated) the value was over 100 µM; for `Nc1nc2c(ncn2Cc2ccccc2CCO)c(=O)[nH]1`, over 100 µM.
As for `CCC1(Br)C(=O)NC(=O)N(C2CC(O)C(CO)O2)C1N=[N+]=[N-]` (configuration not stated), the TGI was over 100 µM.
As for `O=[N+]([O-])c1ccc(N=Nc2c(O)[nH]c3ccc([N+](=O)[O-])cc23)cc1`, the TGI was 17 µM.
Still for that read-out and setting: for `CC12CC3(C)CC(C)(C1)CC(N=[N+]=[N-])(C2)C3` the value was over 100 µM.
Still for that read-out and setting: the result for `N=C(N)SCc1cn2ccccc2n1` reads over 100 µM.
For the compound `Clc1ccc([O][In]([O]c2ccc(Cl)cn2)[O]c2ccc(Cl)cn2)nc1`, the GI50 is over 100 µM and the TGI is over 100 µM.
The compound `Fc1cccc(Cl)c1C1SCc2nc3ccccc3n21` (configuration not stated) displayed a TGI of over 100 µM.
On the same count and under the same terms, the result for `COc1cc2nncc(Sc3cnnc4ccccc34)c2cc1OC` reads 96.9 µM.
Compound `COC(=O)C1=CCON(c2ccccc2)C1c1ccccc1` (configuration not stated) registered a TGI of over 100 µM.
As to `CC(=O)N(CCN)CCN`, the TGI was over 10 µM.
Same read-out and setting: the result for `Cc1cc(O)c2c(c1)C(O)(c1ccc3c(c1O)C(=O)c1c(O)cc(C)cc1C3(O)C1OC(CO)C(O)C(O)C1O)c1cccc(O)c1C2=O` (configuration not stated) reads 29.2 µM; that for `COC(=O)c1nc(NN)[nH]c(=O)c1CCCCCc1c(C(=O)OC)[nH]c(NN)cc1=O`, over 100 µM; that for `CC1(C)C(=O)C(O)=CC2C1=CCC1C2(C)C(=O)CC2(C)C(C(C)(O)C(=O)CC(O)C(C)(C)O)C(O)CC12C` (configuration not stated), 5.65 µM.
In turn, `CCc1ccccc1NC(=O)C(=O)C(C(=O)c1ccc(OC)cc1)c1ccc(OC)cc1` (configuration not stated) yielded a TGI of over 100 µM.
As for `C/C(=N/N(C=O)C[n+]1ccccc1)C(CN(CC(C)C)CC(C)C)C(=O)Nc1ccc(C)cc1C` (configuration not stated), the TGI is over 100 µM.
Still for that read-out and setting: the result for `O=C(c1ccccc1)c1c(CC(O)c2cccnc2)n(C(=O)c2ccccc2)c2ccccc12` (configuration not stated) reads 99.4 µM; that for `C=C(C)C1CC2C(C)=C(OC(C)=O)C1n1c(=O)c3cc4ccccc4cc3c(=O)n12` (configuration not stated), over 100 µM.
The same measure, in the same setting: for `COc1ccc(C(C2=C(C)C(=O)c3ccccc3C2=O)c2ccc(C(C)C)cc(=O)c2O)cc1` (configuration not stated) the value was 6.26 µM.
The compound `CC(C)N(C(=O)C12C3C4C1C1C2C3C41C(O)C(C)(C)C)C(C)C` (configuration not stated) came in with a TGI of over 50 µM.
Take `Clc1ccc(COC(Cn2ccnc2)c2ccc(Cl)cc2Cl)cc1` (configuration not stated): the GI50 is 1.88 µM; the TGI is 4.01 µM and 25.8 µM and 26.3 µM.
Regarding `COC(=O)C1=C(OC(=O)c2ccc(Cl)cc2)C(C(=O)OC)[C@@]2(O)[C@@H](C(=O)OC)C(c3ccccc3C(F)(F)F)C[C@@H]1[C@@H]2C(=O)OC` (some centres not stated), the GI50 was 4.86 µM and the TGI is over 100 µM.
With `Nc1c(C(=O)Nc2ccc([As](=O)(O)O)cc2)cnc2nnnn12`, the TGI was over 100 µM.
In the case of `CC(C)n1c(/C=C/[C@@H](O)C[C@@H](O)CC(=O)O)c(-c2ccc(F)cc2)c2ccccc21`, the GI50 is 4.71 µM and 5.31 µM; the TGI was over 100 µM.
For `N#CC(C#N)SCc1ccccc1`, the TGI was over 100 µM.
Still for that read-out and setting: the result for `CCOc1ccc(NCC2CC/C(=C\C=C\c3ccccc3)C2=O)cc1` (configuration not stated) reads 13.5 µM.
For `Cc1cc(N(CCNc2ccnc3cc(Cl)ccc23)Cc2ccc3c(c2)OCO3)nc(N2CCN(C)CC2)n1`, the GI50 is 1.59 µM and the TGI stood at 3.29 µM.

In a further assay the test system is OVCAR-8 ovarian. The assay is described as follows: NCI-60 cell line screen, 48 h.
For the compound `O=C1c2ccccc2N2OC3(N4CCCC4)CCCC3C12c1ccccc1` (configuration not stated), the TGI was over 100 µM.
Still for that read-out and setting: for `COc1ccc(C2C(Cl)C(=O)N2n2cnc3ccccc3c2=O)cc1OC` (configuration not stated) the value was over 100 µM; for `Nc1nc2c(ncn2Cc2ccccc2CCO)c(=O)[nH]1`, over 100 µM.
Take `CCC1(Br)C(=O)NC(=O)N(C2CC(O)C(CO)O2)C1N=[N+]=[N-]` (configuration not stated): the TGI was over 100 µM.
On the same count and under the same terms, the result for `O=[N+]([O-])c1ccc(N=Nc2c(O)[nH]c3ccc([N+](=O)[O-])cc23)cc1` reads 35 µM; that for `CC12CC3(C)CC(C)(C1)CC(N=[N+]=[N-])(C2)C3`, over 100 µM; that for `N=C(N)SCc1cn2ccccc2n1`, over 100 µM.
On to `Clc1ccc([O][In]([O]c2ccc(Cl)cn2)[O]c2ccc(Cl)cn2)nc1`, for which the GI50 is over 100 µM and the TGI was over 100 µM.
In turn, `Fc1cccc(Cl)c1C1SCc2nc3ccccc3n21` (configuration not stated) yielded a TGI of over 100 µM.
Still for that read-out and setting: the result for `CC(=O)N(CCN)CCN` reads over 10 µM; that for `Cc1cc(O)c2c(c1)C(O)(c1ccc3c(c1O)C(=O)c1c(O)cc(C)cc1C3(O)C1OC(CO)C(O)C(O)C1O)c1cccc(O)c1C2=O` (configuration not stated), 34 µM.

(Values after PubChem BioAssay (NCI).)
